This note sets out measurements from patent US12037583B2, “Compositions and methods for immunooncology” (Novartis AG, priority 2015, dated 2024).

This data set deals with PDCD1. Description: NGS editing of PDCD1 by dgRNA in HEK cells stably expressing Cas9.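 Further: dgRNA lipofected into Cas9-expressing HEK cells, lysed after 24 h, target amplicon sequenced, editing = reads carrying insertions or deletions as percent of all reads including wild type.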 Format: cell-based, human. The settings on record: at least 3 experiments.

With “CR000852: dgRNA targeting domain to PDCD1 (guide GUUGGAGAAGCUGCAGGUGA; targeting domain within dual guide RNA, chemistry not given here, further chemistry not given here; listed as Homo sapiens)”, the “HEK (NGS) % Editing Mean” value is reported as 72%. The result for “CR000853: gRNA targeting domain to PDCD1, CACGAAGCUCUCCGAUGUGU (SEQ ID NO: 5749) (targeting domain within guide RNA, chemistry not given here, further chemistry not given here; listed as Homo sapiens)” reads 33%; that for “CR000854: dgRNA targeting domain to PDCD1 (guide CGGAGAGCUUCGUGCUAAAC; targeting domain within dual guide RNA, chemistry not given here, further chemistry not given here; listed as Homo sapiens)”, 24%. For “CR000855: dgRNA targeting domain to PDCD1 (guide UCUGGUUGCUGGGGCUCAUG; targeting domain within dual guide RNA, chemistry not given here, further chemistry not given here; listed as Homo sapiens)” the value was 61%. For “CR000857: dgRNA targeting domain to PDCD1 (guide AGCUUGUCCGUCUGGUUGCU; targeting domain within dual guide RNA, chemistry not given here, further chemistry not given here; listed as Homo sapiens)” the value was 1%; for “CR000858: dgRNA targeting domain to PDCD1 (guide CAGCUUGUCCGUCUGGUUGC; targeting domain within dual guide RNA, chemistry not given here, further chemistry not given here; listed as Homo sapiens)”, 16%. Turning to “CR000863: dgRNA targeting domain to PDCD1 (guide CCGGGCUGGCUGCGGUCCUC; targeting domain within dual guide RNA, chemistry not given here, further chemistry not given here; listed as Homo sapiens)”, the “HEK (NGS) % Editing Mean” value is 40%. The result for “CR000864: dgRNA targeting domain to PDCD1 (guide CCCGAGGACCGCAGCCAGCC; targeting domain within dual guide RNA, chemistry not given here, further chemistry not given here; listed as Homo sapiens)” reads 7%. The result for “CR000865: dgRNA targeting domain to PDCD1 (guide GCCGGGCUGGCUGCGGUCCU; targeting domain within dual guide RNA, chemistry not given here, further chemistry not given here; listed as Homo sapiens)” reads 4%; that for “CR000866: dgRNA targeting domain to PDCD1 (guide CGGAAGCGGCAGUCCUGGCC; targeting domain within dual guide RNA, chemistry not given here, further chemistry not given here; listed as Homo sapiens)”, 4%; that for “CR000867: dgRNA targeting domain to PDCD1 (guide ACGGAAGCGGCAGUCCUGGC; targeting domain within dual guide RNA, chemistry not given here, further chemistry not given here; listed as Homo sapiens)”, 24%. With “CR000868: gRNA targeting domain to PDCD1, UGACACGGAAGCGGCAGUCC (SEQ ID NO: 5764) (targeting domain within guide RNA, chemistry not given here, further chemistry not given here; listed as Homo sapiens)”, the “HEK (NGS) % Editing Mean” value worked out at 47%.

Take “CR000869: dgRNA targeting domain to PDCD1 (guide GCAGUUGUGUGACACGGAAG; targeting domain within dual guide RNA, chemistry not given here, further chemistry not given here; listed as Homo sapiens)”: the “HEK (NGS) % Editing Mean” value worked out at 55%. For “CR000870: dgRNA targeting domain to PDCD1 (guide CGUGUCACACAACUGCCCAA; targeting domain within dual guide RNA, chemistry not given here, further chemistry not given here; listed as Homo sapiens)” the value was 66%. For “CR000871: dgRNA targeting domain to PDCD1 (guide GUGUCACACAACUGCCCAAC; targeting domain within dual guide RNA, chemistry not given here, further chemistry not given here; listed as Homo sapiens)” the value was 57%; for “CR000872: dgRNA targeting domain to PDCD1 (guide AUGUGGAAGUCACGCCCGUU; targeting domain within dual guide RNA, chemistry not given here, further chemistry not given here; listed as Homo sapiens)”, 26%; for “CR000874: dgRNA targeting domain to PDCD1 (guide GCGUGACUUCCACAUGAGCG; targeting domain within dual guide RNA, chemistry not given here, further chemistry not given here; listed as Homo sapiens)”, 47%. For “CR000875: dgRNA targeting domain to PDCD1 (guide ACUUCCACAUGAGCGUGGUC; targeting domain within dual guide RNA, chemistry not given here, further chemistry not given here; listed as Homo sapiens)” the value was 6%; for “CR000877: dgRNA targeting domain to PDCD1 (guide GGGCCCUGACCACGCUCAUG; targeting domain within dual guide RNA, chemistry not given here, further chemistry not given here; listed as Homo sapiens)”, 5%.

With “CR000878: dgRNA targeting domain to PDCD1 (guide ACAUGAGCGUGGUCAGGGCC; targeting domain within dual guide RNA, chemistry not given here, further chemistry not given here; listed as Homo sapiens)”, the “HEK (NGS) % Editing Mean” value is 1%. For “CR000879: dgRNA targeting domain to PDCD1 (guide AGGGCCCGGCGCAAUGACAG; targeting domain within dual guide RNA, chemistry not given here, further chemistry not given here; listed as Homo sapiens)” the value was 68%; for “CR000880: dgRNA targeting domain to PDCD1 (guide GGUGCCGCUGUCAUUGCGCC; targeting domain within dual guide RNA, chemistry not given here, further chemistry not given here; listed as Homo sapiens)”, 10%; for “CR000881: gRNA targeting domain to PDCD1, AGGUGCCGCUGUCAUUGCGC (SEQ ID NO: 5777) (targeting domain within guide RNA, chemistry not given here, further chemistry not given here; listed as Homo sapiens)”, 21%. For “CR000882: dgRNA targeting domain to PDCD1 (guide GACAGCGGCACCUACCUCUG; targeting domain within dual guide RNA, chemistry not given here, further chemistry not given here; listed as Homo sapiens)” the value was 50%; for “CR000883: dgRNA targeting domain to PDCD1 (guide ACAGCGGCACCUACCUCUGU; targeting domain within dual guide RNA, chemistry not given here, further chemistry not given here; listed as Homo sapiens)”, 9%. Turning to “CR000884: dgRNA targeting domain to PDCD1 (guide CCAGGGAGAUGGCCCCACAG; targeting domain within dual guide RNA, chemistry not given here, further chemistry not given here; listed as Homo sapiens)”, the “HEK (NGS) % Editing Mean” value was 59%. In the case of “CR000885: dgRNA targeting domain to PDCD1 (guide GAUCUGCGCCUUGGGGGCCA; targeting domain within dual guide RNA, chemistry not given here, further chemistry not given here; listed as Homo sapiens)”, the “HEK (NGS) % Editing Mean” value was found to be 10%.

“CR000886: dgRNA targeting domain to PDCD1 (guide UGAUCUGCGCCUUGGGGGCC; targeting domain within dual guide RNA, chemistry not given here, further chemistry not given here; listed as Homo sapiens)”: the “HEK (NGS) % Editing Mean” value is recorded as 2%.

On to “CR000887: dgRNA targeting domain to PDCD1 (guide CUCUUUGAUCUGCGCCUUGG; targeting domain within dual guide RNA, chemistry not given here, further chemistry not given here; listed as Homo sapiens)”, for which the “HEK (NGS) % Editing Mean” value was found to be 46%. For the substance “CR000888: dgRNA targeting domain to PDCD1 (guide UCUCUUUGAUCUGCGCCUUG; targeting domain within dual guide RNA, chemistry not given here, further chemistry not given here; listed as Homo sapiens)”, the “HEK (NGS) % Editing Mean” value is on record as 4%.
